Assay results taken from patent publication US20250186461A1, “METHODS AND COMPOSITIONS FOR TREATING AND/OR PREVENTING HERNIAS” (Northwestern University, priority 2023, published 2025).
Entries after “also recorded” stand apart in the source; their conditions may differ.

Legend:
[1] = tested on: LAM fibroblasts from Arom^hum mice; assay: Click-iT EdU proliferation assay; type: cell-based, mouse; settings: 1 μM antagonist; E2 (10 nM)+R5020 (100 nM)
Arom^hum mice [2] = assay: Hernia prevention in Arom^hum mice (treatment before hernia formation); type: in vivo, mouse; settings: for hernia formation / hernia size: male Arom^hum mice, 12-week treatment started at 3-3.5 weeks of age (before hernia formation)
From the text: Our study design is robust, utilizing Arom^hum mice with endpoints examined after treatment with placebo or anti-P4/PGR, and compared to those of WT littermates using 2 different tissue sites: UAM and LAM (normal or weakened/herniated). Inguinal hernia affects predominantly men vs. women (10:1 ratio). Inguinal hernias are unique to male mice and aged men. […] Here, we will focus on the effects of P4/PGR action on skeletal muscle integrity and hernia formation in males, and our work will be carried out in male mice or tissues primarily from men over 50 years of age. We will use mouse or human tissues or primary cells to closely recapitulate in vivo pathology.
The mouse scrotum is connected to the peritoneal cavity with a narrow funicular (or inguinal) canal, with walls composed of LAM tissue. Structurally normal LAM tissue is essential to maintain the tone of this canal and prevent herniation of the bowel.
Experiment 1a1: Does the addition of P4 to E2 treatment accelerate LAM fibrosis and hernia formation in WT mice? […] We hypothesize that this effect is primarily mediated by the E2 induction of PGR expression in LAM fibroblasts. […] If this were true, the addition of pharmacologic quantities of P4 (75 mg/pellet for 12-week release)^73 to E2 (0.3 mg/pellet for 12-week release)^23-25 in WT mice should accelerate this phenotype. […] See Statistical Methods above for sample size calculation. Hernia surface area will be measured using a digital caliper and calculated as previously described (length×width)^19. At the designated endpoints, LAM and UAM (control) from each mouse will be resected, with one-half of the tissue snap-frozen in liquid nitrogen, and the other half fixed in 4% phosphate-buffered paraformaldehyde for histological and IHC analyses (see below). All tissue and serum (for P4/E2 levels) samples will be collected between 10:00 AM and noon to avoid possible variability in daily hormone fluctuations. […] We will continue to complete the rest of the proposed study in this subaim. We will also assess whether and extent of muscle fibrosis and atrophy will be induced in P4+E2-induced large hernias and E2-induced small hernias. […] P4 antagonists show various levels of selectivity for PGR. […] The use of 3 distinct P4/PGR antagonists with different properties will establish the role of PGR in muscle fibrosis and hernia.
(§1) Hernias will be classified as small, medium, or large if the bulging area through muscle tissue is 125-175 mm^2, 175-225 mm^2, or >225 mm^2, respectively. […] We will assess whether muscle fibrosis, atrophy, and hernia are arrested or reversed. […] Hernia size will be measured. After completion of treatment, the mice will be dissected, and LAM, UAM (control), and serum will be collected. A total of 100 mg of tissue (LAM and UAM) will be obtained and frozen for measurement of tissue E2/P4.

Arom^hum mice [3] = assay: Halting progression of small/medium-sized hernias in Arom^hum mice; type: in vivo, mouse; settings: 12-week treatment started when small/medium-sized hernias were formed, n=10, vs placebo
Experimental: The treatment started when small/medium-sized hernias were formed. ****p<0.0001.
as §1, with “E2/P4. Circulating and tissue E2/P4 levels will be measured using LC-MS^2. We will use immunoblotting and IHC to determine PGR expression in LAM and UAM tissues. PGR target gene expression (Greb1, Cyp7b1) will be measured in paraformaldehyde-fixed LAM tissues using RNAScope and IHC. […] We will continue to complete the rest of the proposed study in this subaim. We will also assess whether muscle fibrosis, atrophy, and large hernia are halted.” for “E2/P4.”

[4] = target: T1, glucocorticoid receptor (GR) (Homo sapiens, UniProt P04150); settings: cited from earlier work
T1 sequence (P04150 1-777): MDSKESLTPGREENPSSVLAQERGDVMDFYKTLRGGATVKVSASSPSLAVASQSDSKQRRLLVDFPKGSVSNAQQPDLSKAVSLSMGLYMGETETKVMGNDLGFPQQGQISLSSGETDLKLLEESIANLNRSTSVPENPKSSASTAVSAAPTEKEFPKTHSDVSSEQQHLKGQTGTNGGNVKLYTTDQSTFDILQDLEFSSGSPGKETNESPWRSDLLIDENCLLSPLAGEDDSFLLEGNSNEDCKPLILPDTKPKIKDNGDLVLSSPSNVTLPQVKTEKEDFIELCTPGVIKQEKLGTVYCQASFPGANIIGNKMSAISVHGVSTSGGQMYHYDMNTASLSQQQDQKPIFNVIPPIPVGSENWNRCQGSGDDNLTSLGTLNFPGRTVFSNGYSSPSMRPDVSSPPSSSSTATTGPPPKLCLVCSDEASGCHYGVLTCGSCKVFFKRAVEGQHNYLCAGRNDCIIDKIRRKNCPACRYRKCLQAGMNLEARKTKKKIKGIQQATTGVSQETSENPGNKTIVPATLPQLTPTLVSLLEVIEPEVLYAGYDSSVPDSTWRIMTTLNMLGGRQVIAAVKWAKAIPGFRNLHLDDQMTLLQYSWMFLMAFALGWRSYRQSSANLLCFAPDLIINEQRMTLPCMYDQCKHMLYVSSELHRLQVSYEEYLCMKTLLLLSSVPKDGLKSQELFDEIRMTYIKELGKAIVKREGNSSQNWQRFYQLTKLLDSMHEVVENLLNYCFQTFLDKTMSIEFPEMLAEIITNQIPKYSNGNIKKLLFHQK

[5] = tested on: LAM primary fibroblasts from Arom^hum mice; assay: mRNA levels of P4/PGR-responsive and fibrotic genes in LAM primary fibroblasts; type: cell-based, mouse; settings: for E2+R5020-stimulated expression of Col1a1 and Col12a1, blockade: pretreatment with 1 μM antagonist

E2+R5020-induced expression of P4/PGR-responsive (Greb1, Cyp7b1) and fibrotic genes (Adamtsl1, Col1a1, Col14a1) ([5]; 1 μM antagonist, pretreated 2 h before E2 (10 nM)+R5020 (100 nM))	Structure (SMILES)	inhibition of E2+R5020-stimulated LAM fibroblast proliferation [1]	LAM fibroblast proliferation in vivo (Ki67 IHC staining) (Arom^hum mice [2]; Arom^hum mice, placebo or RU486, n=6)	LAM tissue fibrosis, ECM deposition and myocyte atrophy (Masson's trichrome staining) (Arom^hum mice [2]; Arom^hum mice, vs placebo)	PGR-positive fibroblasts in LAM tissue (PGR IHC staining) (Arom^hum mice [2]; Arom^hum mice, vs placebo, n=10)	scrotal area (Arom^hum mice [2]; RU486-treated Arom^hum mice vs WT littermates)	hernia formation / hernia size (Arom^hum mice [2]; vs placebo)	progression (growth) of small/medium-sized hernias, hernia area (Arom^hum mice [3])	anti-glucocorticoid activity [4]	E2+R5020-stimulated expression of Col1a1 and Col12a1, blockade [5]
	CC#C[C@]1(O)CC[C@H]2[C@@H]3CCC4=CC(=O)CCC4=C3[C@@H](c3ccc(N(C)C)cc3)C[C@@]21C [RU486, Mifepristone]	inhibited; also recorded: blocked	blocked	prevents LAM fibrosis, excessive ECM deposition or myocyte atrophy; also recorded: prevented LAM tissue fibrosis and atrophy in all treated Arom^hum mice	much fewer fibroblasts with PGR IHC staining; also recorded: severely reduced numbers of PGR-positive fibroblasts	slightly larger than that of WT littermates but was maintained within the upper limit of normal with no evidence of herniation	prevented hernia formation in Arom^hum mice; also recorded: strikingly reduced hernia size or entirely prevented hernia development in all Arom^hum mice	halted the progression of small/medium-sized hernias in Arom^hum mice; also recorded: halted the growth of small- and medium-size hernias in all treated Arom^hum mice	has anti-glucocorticoid effects	blocked
significantly decreased	CC(=O)O[C@]1(C(C)=O)CC[C@H]2[C@@H]3CCC4=CC(=O)CCC4=C3[C@@H](c3ccc(N(C)C)cc3)C[C@@]21C [UPA, Ulipristal acetate]	inhibited; also recorded: blocked					prevented hernia formation in Arom^hum mice; also recorded: also prevented hernia formation	halted the progression of small/medium-sized hernias in Arom^hum mice; also recorded: halted the growth of small- and medium-size hernias in all treated Arom^hum mice	extremely low anti-glucocorticoid activity	blocked
